Reference: patent US20240360114A1 (SIRONAX LTD., priority 2021, published 2024)

These compounds were tested on HT-1080 cells (assay: HT-1080 cell viability assay (ferroptosis induced by RSL3, Cell Titer-Glo)). Conditions: Homo sapiens, HT-1080, 20 h, ferroptosis inducer RSL3, 20 hours, ferroptosis inhibitory activity, Table 2.
Type: cell-based
How it was run: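 EC50 fitted by sigmoidal dose-response regression on luminescent viability data normalized to untreated cells. Compounds ran as a 10-point, 3-fold series from 1.1 μM alongside RSL3 for 20 hours, after overnight seeding.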

SMILES	EC50
Cc1ccc(NC[C@H]2CC[C@H](N)CC2)cc1C [Compound 316, N-(((1r,4r)-4-aminocyclohexyl)methyl)-3,4-dimethylaniline]	0.1 to 100 nM
Cc1cc(C)c(NC2CCC(N)CC2)c(C)c1 (stereo not drawn) [Compound 219, N1-mesitylcyclohexane-1,4-diamine]	1000 to 10000 nM
NC1CCC(Nc2cccc3ccccc23)CC1 (stereo not drawn) [Compound 238, N1-(naphthalen-1-yl)cyclohexane-1,4-diamine]	0.1 to 100 nM
CC1(C)CCC(c2ccc(NC3CCC(CNC(=O)[C@@H]4CNC(=O)N4)CC3)cc2)CC1 (single isomer, unassigned) [Compound 107A]	0.1 to 100 nM
CC1(C)CCN(CCNc2ccc(C(C)(C)C)cc2)CC1 [Compound 246, 4-(tert-butyl)-N-(2-(4,4-dimethylpiperidin-1-yl)ethyl)aniline]	100 to 1000 nM
CC(C)(C)c1ccc(NC2CCC(NCCN)CC2)cc1 (stereo not drawn) [Compound 268, 1-N-(2-aminoethyl)-N4-(4-(tert-butyl)phenyl)cyclohexane-1,4-diamine]	0.1 to 100 nM
NC1CCC(Nc2ccc3nc(N4CCC(C(F)(F)F)CC4)cnc3c2)CC1 (stereo not drawn) [Compound 573, N1-(2-(4-(trifluoromethyl)piperidin-1-yl)quinoxalin-6-yl)cyclohexane-1,4-diamine]	0.1 to 100 nM
CCC1CCN(c2ccc(NC3CCC(N)CC3)cc2)CC1 (stereo not drawn) [Compound 61, N1-(4-(4-ethylpiperidin-1-yl)phenyl)cyclohexane-1,4-diamine]	0.1 to 100 nM
Cc1nc(N2CCC(C(F)(F)F)CC2)ccc1NC1CC2(CC(N)C2)C1 (stereo not drawn) [Compound 376, N2-(2-methyl-6-(4-(trifluoromethyl)piperidin-1-yl)pyridin-3-yl) spiro[3.3]heptane-2,6-diamine]	0.1 to 100 nM
N[C@H]1CC[C@H](CNc2ccc(N3CCC(C(F)(F)F)CC3)cc2)CC1 [Compound 356, N-(((1r,4r)-4-aminocyclohexyl)methyl)-4-(4-(trifluoromethyl)piperidin-1-yl)aniline]	0.1 to 100 nM
O=C1CC(C(=O)NC2CC(Nc3ccc(C4CCCCC4)cc3)C2)CN1 (stereo not drawn) [Compound 112, N-(3-((4-cyclohexylphenyl)amino)cyclobutyl)-5-oxopyrrolidine-3-carboxamide]	100 to 1000 nM
CCc1cc(NC2CCC(N)CC2)ccc1C(C)(C)C (stereo not drawn) [Compound 329, 1-N-(4-(tert-butyl)-3-ethylphenyl)cyclohexane-1,4-diamine]	0.1 to 100 nM
Cc1cc(N2CC3(COC3)C2)ccc1NC1CC2(CC(N)C2)C1 (stereo not drawn) [Compound 482, N2-(2-methyl-4-(2-oxa-6-azaspiro[3.3]heptan-6-yl)phenyl)spiro[3.3]heptane-2,6-diamine]	0.1 to 100 nM
N[C@H]1CC[C@H](Nc2ccc(N3CCC(C(F)(F)F)CC3)cc2)CC1 [Compound 354, (1r,4r)-N1-(4-(4-(trifluoromethyl)piperidin-1-yl)phenyl)cyclohexane-1,4-diamine]	0.1 to 100 nM
CC(C)(C)c1ccc(N[C@@H]2C[C@H](N)C[C@H](N)C2)cc1 [Compound 345, (1s,3R,5S)-N1-(4-(tert-butyl)phenyl)cyclohexane-1,3,5-triamine]	100 to 1000 nM
CC(C)C1CCN(c2ncc(NC3CCC(N)C3)cn2)CC1 (stereo not drawn) [Compound 38, N1-(2-(4-isopropylpiperidin-1-yl)pyrimidin-5-yl)cyclopentane-1,3-diamine]	0.1 to 100 nM
COCC1CCC(Nc2ccc(C3CCC(C)(C)CC3)cc2)CC1 (stereo not drawn) [Compound 75]	100 to 1000 nM
CC1CN(c2ccc(NC3CC4(CC(N)C4)C3)cn2)CC(C)O1 (stereo not drawn) [Compound 477, N2-(6-(2,6-dimethylmorpholino)pyridin-3-yl)spiro[3.3]heptane-2,6-diamine]	100 to 1000 nM
NC1CC2(C1)CC(Nc1ccc(N3CCC(C(F)(F)F)CC3)cc1F)C2 (stereo not drawn) [Compound 364, N2-(2-fluoro-4-(4-(trifluoromethyl)piperidin-1-yl)phenyl)spiro[3.3]heptane-2,6-diamine]	0.1 to 100 nM
CCOCCCc1ccc(N[C@H]2CC[C@H](N)CC2)cc1 [Compound 293, (1r,4r)-N1-(4-(3-ethoxypropyl)phenyl)cyclohexane-1,4-diamine]	100 to 1000 nM

SMILES	EC50
CC(C)C1CCN(c2ncc(NC3CCC(CN)C3)cn2)CC1 (stereo not drawn) [Compound 48, N-(3-(aminomethyl)cyclopentyl)-2-(4-isopropylpiperidin-1-yl)pyrimidin-5-amine]	0.1 to 100 nM
CC(C)(C)c1ccc(N[C@@H]2C[C@H](N)C[C@H](Nc3ccc(C(C)(C)C)cc3)C2)cc1 [Compound 351, (1R, 3S,5r)-N1,N3-bis(4-(tert-butyl)phenyl)cyclohexane-1,3,5-triamine]	0.1 to 100 nM
CC(C)C1CCN(c2ncc(NC[C@H]3CC[C@H](N)CC3)cn2)CC1 [Compound 360, N-(((1r,4r)-4-aminocyclohexyl)methyl)-2-(4-isopropylpiperidin-1-yl)pyrimidin-5-amine]	0.1 to 100 nM
NC1CCC(Nc2cnc(N3CC4(CCC4)C3)nc2)CC1 (stereo not drawn) [Compound 47, N1-(2-(2-azaspiro[3.3]heptan-2-yl)pyrimidin-5-yl)cyclohexane-1,4-diamine]	100 to 1000 nM
O=C1CC(C(=O)NC2CCC(Nc3ccc(C4CCCCC4)cc3)CC2)CN1 (stereo not drawn) [Compound 110, N-(4-((4-cyclohexylphenyl)amino)cyclohexyl)-5-oxopyrrolidine-3-carboxamide]	100 to 1000 nM
Cc1nc(N2CC(C)OC(C)C2)ccc1NCC1CC2(CC(N)C2)C1 (stereo not drawn) [Compound 512, N-((6-aminospiro [3.3]heptan-2-yl)methyl)-6-(2,6-dimethylmorpholino)-2-methylpyridin-3-amine]	0.1 to 100 nM
CC(C)C1CCN(c2ncc(NC3CC4(CC(NC(=O)C(N)=O)C4)C3)cn2)CC1 (stereo not drawn) [Compound 403, N1-(6-((2-(4-isopropylpiperidin-1-yl)pyrimidin-5-yl)amino)spiro[3.3]heptan-2-yl)oxalamide]	0.1 to 100 nM
O=C1CC(C(=O)NCC2CCC(Nc3ccc(N4CCC(C(F)(F)F)CC4)cc3)CC2)CN1 (stereo not drawn) [Compound 2, 5-oxo-N-((4-((4-(4-(trifluoromethyl)piperidin-1-yl)phenyl)amino)cyclohexyl)methyl)pyrrolidine-3-carboxamide]	0.1 to 100 nM
Cc1nc(N2CC(C)OC(C)C2)ccc1NC1CCC(CCCN)CC1 (stereo not drawn) [Compound 534, N-(4-(3-aminopropyl)cyclohexyl)-6-(2,6-dimethylmorpholino)-2-methylpyridin-3-amine]	0.1 to 100 nM
CCCCC1CCN(c2ccc(NC3CCC(CN)CC3)c(C)n2)CC1 (stereo not drawn) [Compound 30, N-(4-(aminomethyl)cyclohexyl)-6-(4-butylpiperidin-1-yl)-2-methylpyridin-3-amine]	0.1 to 100 nM
CCC(C)(C)c1ccc(NC2CCC(O)CC2)cc1 (stereo not drawn) [Compound 298, 4-((4-(tert-pentyl)phenyl)amino)cyclohexan-1-ol]	100 to 1000 nM
NC1CCC(Nc2ccc(N3CCC(C(F)(F)F)CC3)c(F)c2)CC1 (stereo not drawn) [Compound 68, N1-(3-fluoro-4-(4-(trifluoromethyl)piperidin-1-yl)phenyl)cyclohexane-1,4-diamine]	0.1 to 100 nM
Cc1nc(N2CCC3(CC2)COC3)ccc1NC1CC2(CC(N)C2)C1 (stereo not drawn) [Compound 530, 2-N-(2-methyl-6-{2-oxa-7-azaspiro[3.5]nonan-7-yl}pyridin-3-yl)spiro[3.3]heptane-2,6-diamine]	1000 to 10000 nM
CC1(C)CCCc2cc(NC3CCC(N)CC3)ccc21 (stereo not drawn) [Compound 337A, 1-N-(5,5-dimethyl-5,6,7,8-tetrahydronaphthalen-2-yl)cyclohexane-1,4-diamine]	0.1 to 100 nM
NC1CCC(Nc2ccc(N3CCC(C(F)(F)F)CC3)c(Cl)c2)CC1 (stereo not drawn) [Compound 67, N1-(3-chloro-4-(4-(trifluoromethyl)piperidin-1-yl)phenyl)cyclohexane-1,4-diamine]	0.1 to 100 nM
CC(C)(C)c1ccc(NC2CCc3nc(N)sc3C2)cc1 (stereo not drawn) [Compound 204, 4-N-(4-(tert-butyl)phenyl)-4,5,6,7-tetrahydrobenzo[d]thiazole-2,6-diamine]	100 to 1000 nM
Cc1nc(N2CC[Si](C)(C)CC2)ccc1NC1CC2(CC(N)C2)C1 (stereo not drawn) [Compound 556, N2-(6-(4,4-dimethyl-1,4-azasilinan-1-yl)-2-methylpyridin-3-yl)spiro[3.3]heptane-2,6-diamine]	0.1 to 100 nM
CC(C)(C)c1ccc(N[C@H]2CC[C@H](N)CC2)cc1 [Compound 197, (1r,4r)-N1-(4-(tert-butyl)phenyl)cyclohexane-1,4-diamine]	0.1 to 100 nM
CC(C)(C)c1ccc(NC2CCC(O)C(O)C2)cc1 (stereo not drawn) [Compound 255, 4-((4-(tert-butyl)phenyl)amino)cyclohexane-1,2-diol]	1000 to 10000 nM

Same assay, conditions: Homo sapiens, HT-1080, 20 h, ferroptosis inducer RSL3, 20 hours, ferroptosis inhibitory activity, Table 3

SMILES	EC50
Cc1nc(N2C[C@@H](C)N(CC(F)(F)F)[C@@H](C)C2)ccc1NC1C[C@H]2CC(N)C[C@H]2C1 (stereo partly drawn) [Compound 577, (3aR,6aS)-N2-(6-((3R,5S)-3,5-dimethyl-4-(2.2,2-trifluoroethyl)piperazin-1-yl)-2-methylpyridin-3-yl)octahydropentalene-2,5-diamine]	0.1 to 100 nM
CC(=O)N1CCN(CCNc2ccc(N3CC(C)OC(C)C3)nc2C)CC1 (stereo not drawn) [Compound 607, 1-(4-(2-((6-(2,6-dimethylmorpholino)-2-methylpyridin-3-yl)amino)ethyl)piperazin-1-yl)ethan-1-one]	100 to 1000 nM
Cc1cc(N2CC(C)N(C(=O)C(F)(F)F)C(C)C2)ccc1NC1CC2(CC(N)C2)C1 (stereo not drawn) [Compound 644, 1-(4-(4-((6-aminospiro[3.3]heptan-2-yl)amino)-3-methylphenyl)-2,6-dimethylpiperazin-1-yl)-2,2,2-trifluoroethan-1-one]	0.1 to 100 nM
Cc1cc(N2CC[Si](C)(C)CC2)ccc1NC1CC2(CC(N)C2)C1 (stereo not drawn) [Compound 634, N2-(4-(4.4-dimethyl-1,4-azasilinan-1-yl)-2-methylphenyl)spiro[3.3]heptane-2,6-diamine]	0.1 to 100 nM
CC1CN(c2ccc3cc(NC4CC5(CC(O)C5)C4)ccc3c2)CC(C)N1CC(F)(F)F (stereo not drawn) [Compound 610]	0.1 to 100 nM
Cc1nc(N2C3CCC2CC3)ccc1NC1CC2(CC(N)C2)C1 (stereo not drawn) [Compound 587, N2-(6-(7-azabicyclo[2.2.1]heptan-7-yl)-2-methylpyridin-3-yl)spiro[3.3]heptane-2,6-diamine]	100 to 1000 nM
